Test results as given in patent US8609162B2, “Integrated neuromodulation system for mood enhancement of a living human subject” (priority 2012, dated 2013).

What was measured:
[1] = system: normal, healthy volunteers; test: clinical trial of subjective mood enhancement after ingestion of the prepared beverage, eight test groups; assay type: in vivo, human; settings: for duration of effect: following ingestion of the prepared beverage; for Score, subjective feeling of mood enhancement: scale of 0 (no change) to 10 (euphoric), N=10 per group, oral solution in 125 mL juice, 10 day period; for mood effect as described: subjective report in words
Procedure: A set of clinical trials were performed using the median dosing of a ‘typical formulation’ in randomly selected normal, healthy volunteers ranging from 14 to 80 years (mean age 44.5 years) greater than 50 kg body weight over a 10 day period. At the end of the clinical trial, subjects were asked to subjectively rate the feeling of mood enhancement, ranging from a scale of 0 (no change) to 10 (euphoric) and to rate the duration of effect (in hours) following ingestion of the prepared beverage. Members also were encouraged to report any side effects, if any.
Eight different test groups of ten human subjects each (N=10) were devised as follows:
Test Group 1: Oral solution containing 125 mL juice (7% carbohydrate), 3 times daily. This formulation represents placebo.
Test Group 2: L-Phenylalanine, 800 mg and mucina pruriens, 15% L-DOPA, 200 mg oral solution in 125 mL juice (containing 7% carbohydrate), 3 times daily. This nootropic formulation affects the following neurotransmitter systems: dopamine agonist, a stimulant. The type number ratio is 2:0:0:0:0 to produce a ΔN=+2. This agent fails the test for producing predictable mood enhancement because it is has an imbalanced type number ratio, resulting in a net stimulatory effect (ΔN=+2), and producing a predictable mood over stimulation.
Test Group 3: Phenylethylamine hydrochloride, 400 mg oral solution in 125 mL juice (containing 7% carbohydrate), single dose. This nootropic formulation affects the following neurotransmitter systems: dopamine agonist, a stimulant. The type number ratio is 1:0:0:0:0 to produce a ΔN=+1. This agent fails the test for producing predictable mood enhancement because it is has an imbalanced type number ratio, resulting in a net stimulatory effect (ΔN=+1), and producing a predictable mood over stimulation.
Test Group 4: Dimethylaminoethanol bitartrate, 300 mg oral solution in 125 mL juice (containing 7% carbohydrate), 3 times daily. This nootropic formulation affects the following neurotransmitter systems: acetylcholine agonist, an inhibitor. The type number ratio is 0:1:0:0:0 to produce a ΔN=−1. This agent fails the test for producing predictable mood enhancement because it is has an imbalanced type number ratio, resulting in a net inhibitory effect (ΔN=−1), and producing a predictable mood suppression.
Test Group 5: S-Adenosyl-methionine tosylate disulfate, 300 mg oral solution in 125 mL juice (containing 7% carbohydrate), 3 times daily. This nootropic formulation affects the following neurotransmitter systems: serotonin agonist, an inhibitor. The type number ratio is 0:0:1:0:0 to produce a ΔN=−1. This agent fails the test for producing predictable mood enhancement because it is has an imbalanced type number ratio, resulting in a net inhibitory effect (ΔN=−1), and producing a predictable mood suppression.
Test Group 6: Anhydrous caffeine, 80 mg oral solution in 125 mL juice (containing 7% carbohydrate), 3 times daily. This nootropic formulation affects the following neurotransmitter systems: adenosine antagonist, a stimulant. The type number ratio is 0:0:0:0:1 to produce a ΔN=+1. This agent fails the test for producing predictable mood enhancement because it is has an imbalanced type number ratio, resulting in a net stimulatory effect (ΔN=+1), and producing a predictable mood over stimulation.
Test Group 7: L-Theanine, 200 mg oral solution in 125 mL juice (containing 7% carbohydrate), 3 times daily. This nootropic formulation affects the following neurotransmitter systems: GABA agonist, an inhibitor. The type number ratio is 0:0:0:1:0 to produce a ΔN=−1. This agent fails the test for producing predictable mood enhancement because it is has an imbalanced type number ratio, resulting in a net inhibitory effect (ΔN=−1), and producing a predictable mood suppression. […]

[2] = doses as low as; cited from earlier work

Molecule	side effects reported ([1]; 10 subjects per group)	duration of effect [1]	Score, subjective feeling of mood enhancement [1]	mood effect as described [1]	mood effect as described ([1]; hydrochloride)	mood effect as described ([1]; listed as Phenylethyamine hydrochloride, hydrochloride)	dose producing hallucinogenic and entheogenic effects [2] [µg]	mood effect as described ([1]; listed as S-adenosyl-methionine tosylate disulfate)	side effects reported ([1]; human, in vivo)
Dimethylaminoethanol bitartrate [Test Group 4]	headache in 1 of 10 subjects	less than 1 hours	2.0	mild effect	–	–	–	–	–
Cl.NCCc1ccccc1 [Test Group 3, Phenylethylamine hydrochloride]	flushing in 4 of 10 subjects	less than 30 minutes	7.5	–	temporary euphoric feeling	noticeable but short-term effect	–	–	–
Cn1c(=O)c2c(ncn2C)n(C)c1=O [Test Group 6, Anhydrous caffeine]	No side effects reported	2 h	3.0	felt alert	–	–	–	–	–
CCN(CC)C(=O)[C@@H]1C=C2c3cccc4[nH]cc(c34)C[C@H]2N(C)C1 [LSD]	–	–	–	–	–	–	30 to 40	–	–
S-Adenosyl-methionine tosylate disulfate [Test Group 5]	No side effects reported	3 h	6.0	better mood	–	–	–	moderate mood enhancement	–
CCNC(=O)CC[C@H](N)C(=O)O [Test Group 7, L-Theanine]	–	3 h	6.5	very calm, sedative-like effect	–	–	–	–	No side effects reported
